# Assay results published in patent publication US11213583B2, “Methods and compositions for treating cancer and infectious diseases” (Cedars-Sinai Medical Center, priority 2014, dated 2022).
# How the values were obtained:
# RENCA tumors = experiment: RENCA tumor treatment model in Balb/c mice; assay type: in vivo; conditions: αCD4 days 6 and 10; temsirolimus daily days 14 to 34; no cancer vaccine
# Protocol: (§1) (a) RENCA-CA9 tumor cells were implanted into Balb/C mice (n=5 per group) on day 0. CD4 lymphocytes were depleted with αCD4 antibody on days 6 and 10. Mice were treated with daily temsirolimus on days 14 to 34. Tumor growth was monitored. Results are representative of triplicate experiments. (b) In the same experiment, lymphocytes were harvested on day 45, restimulated with CA9 peptide, and stained for CD8 and IFNγ. (c) Following CD4 depletion, spleen, lymph node and blood were collected on days 0, 1, 10. Lymphocytes were stained for CD4, CD8 and FoxP3 and analyzed by flow cytometry. (c-e) The percentages of CD4 cells in the spleen, lymph node and blood on days 0, 1, and 10 following CD4 depletion are reported. (d) Following CD4 depletion, percentages of splenocytes that are CD4 or CD8 positive are reported, and percent of CD4 cells that are FoxP3 positive is reported. (e) In the same experiment, the absolute numbers of splenocytes positive for CD4, CD8, and CD4/FoxP3 are reported. *p<0.05, **p<0.01,***p<0.005.
# Furthermore, the presence of tumor itself increased Tregs (FIG. 8). Therefore, we hypothesized that the antitumor immunity induced by mTOR inhibition can be further enhanced by targeting Tregs. Currently there is no clinical strategy to selectively remove Tregs; however, it is feasible to deplete all CD4 lymphocytes. However, CD4 effector cells are required for immune activation. […]
# CD8 lymphocytes (IFN-γ) = experiment: Tumor-specific IFN-γ response of lymphocytes harvested on day 45, RENCA model; assay type: in vivo, mice; conditions: lymphocytes harvested day 45, restimulated with CA9 peptide
# Protocol: as §1
# In the same experiment, lymphocytes were harvested on day 45 and assessed for tumor-specific IFN-γ response (FIG. 2b). In tumor-bearing mice that received no treatment, there was no IFN-γ response. […] To characterize the CD4 lymphocyte depletion in response to αCD4, naïve mice were treated with a single dose of αCD4.
# RENCA tumor cells = conditions: Wang et al. Br J Cancer 2011; cited from earlier work
# Pmel-1 lymphocytes = experiment: Flow cytometry of adoptively transferred Thy1.1 Pmel-1 lymphocytes after DC vaccine and temsirolimus; conditions: with DC vaccine
# [1] = tested on: CD4+FoxP3+ lymphocytes / CTL function; experiment: Treg depletion with diphtheria toxin in DEREG mice, in vivo CTL assay
compound,measurement,setting,value
CO[C@H]1C[C@@H]2CC[C@@H](C)[C@@](O)(O2)C(=O)C(=O)N2CCCC[C@H]2C(=O)O[C@H]([C@H](C)C[C@@H]2CC[C@@H](OC(=O)C(C)(CO)CO)[C@H](OC)C2)CC(=O)[C@H](C)/C=C(\C)[C@@H](O)[C@@H](OC)C(=O)[C@H](C)C[C@H](C)/C=C/C=C/C=C/1C [temsirolimus],RENCA tumor growth,RENCA tumors,effective in decreasing tumor growth
same,tumor-specific IFN-γ response,CD8 lymphocytes (IFN-γ),some IFN-γ response
same,growth of RENCA tumor cells in vitro,RENCA tumor cells,directly inhibit the growth of RENCA tumor cells in vitro
same,Eomes expression in Pmel-1 lymphocytes,Pmel-1 lymphocytes,increased expression of Eomes
same,Tbet expression in Pmel-1 lymphocytes,Pmel-1 lymphocytes,decrease in Tbet expression
same,Tregs,Pmel-1 lymphocytes,increase in Tregs
diphtheria toxin [DT],CD4+FoxP3+ lymphocytes,[1],removed nearly all CD4+FoxP3+ lymphocytes
